These results are taken from patent US7723058B2, “Test system for the determination of in-vivo active hemostasis proteases in biological fluids and/or the usage thereof to determine the in-vivo activation of hemostasis” (priority 2001, dated 2010).

Where a SMILES comes first, the peptide text is derived from it. [ ]: non-standard residue; d: D form. The star is where a group is joined. dChg = N[C@@H](C(=O)O)C1CCCCC1; pNA = O=[N+]([O-])c1ccc(N*)cc1

Common to all, as to assay type: biochemical
Series [1] deals with normal plasma. Kind of series: Inhibition of the 1-step CPC by arginine. As to conditions: plasmatic concentrations of arginine above 100 mM. The protocol:
The CPC-test was performed in the 1-step mode as follows: 100 μl normal plasma, containing increasing concentrations of arginine (0-300 mM), pH 8.7 were incubated with 50 μl 1.7 mM HD-CHG-Ala-Arg-pNA in aqua dest. and 50 μl Pathromtin SL®, The increase in absorbance/t (t=0-10 min RT) was determined. Result: at plasmatic concentrations of arginine above 100 mM the Pathromtin SL®-CPC is decreased to 0% (compared to a normal plasma without arginine=100%),

The subject of series [2] is normal plasma (citrated). The series is described as follows: Optimization of the test concentration of contact phase activator in the CPC. How it is done: To optimize the contact phase activator in the CPC 100 μl • a) Neothromtin® (0.6 g/l ellagic acid (3 ml vial Dade Behring in 1.5 ml H2O) • b) Pathromtin® (5 g/l Kaolin, Dade Behring) • c) Pathromtin SL® (SiO2, Dade Behring) in 1:1, 1:2, 1:4, 1:8, 1:16, 1:32, 1:64, 1:128 dilution with H2O or for control 100 μl H2O were incubated with 100 μl 1.5 mmol/l HD-CHG-Ala-Arg-pNA in PBS and with 100 μl normal plasma (citrated) for 4 min (RT). The increase In extinction (405 nm)/4 min was determined.

In series [3] the test system is Control Plasma N® (CPN). The series is described as follows: Comparison of different CPC-approaches. As to conditions: CPN; approaches B) and C). How it is done:
For n=22 citrated plasmas of patients and the Control Plasma N® (CPN) the following CPC-approaches were performed, 2-step-approaches A, B, C and 1-step-approaches D, E, F. • A) 50 μl Plasma+25 μl Pathromtin SL® (SiO2) • B) 50 μl Plasma+25 μl Pathromtin® (kaolin, in H2O twofold diluted) • C) 50 μl Plasma+25 μl Neothromtin® (ellagic acid)
3 min RT time of activation; +25 μl 1.7 mM HD-CHG-Ala-Arg-pNA, 750 mM arginine, 6.4 g/l EDTA, pH 8.7 • D) 50 μl Plasma+25 μl 1.7 mM CH3SO2-D-CHG-Gly-Arg-pNA • E) 50 μl Plasma+13 μl 1.5 M arginine, pH 8.7, +50 μl 1.7 mM CH3SO2-D-CHG-Gly-Arg-pNA • F) 50 μl Plasma+25 μl 1.7 mM HD-CHG-Ala-Arg-pNA in H2O+25 μl Pathromtin SL®
Determination of delta A at 405 nm (RT). The respective changes in extinction were correlated with each other. Result: Pathromtin SL®-2-step-CPC correlated with Pathromtin SL®-1-step-CPC with r=0.798 (delta A/13 min (RT) for CPN in 2-step-CPC=354 mA; delta A/2 min (RT) for CPN-547 mA, i.e. in the 1-step-CPC a […] higher Thrombin-Like Activity is generated compared with the 2-step-CPC; the corresponding values for approaches B) and C) are approx. 30% or 20% lower, respectively. […] Thus, even in arginine-stabilized plasma the amidolytic activity against CH3SO2-D-CHG-Gly-Arg-pNA can reliably be determined, what is valid for chromogenic substrates with a CH3SO2-group.

The subject of series [4] is active trypsin. The series is described as follows: Detection of active trypsin in plasma, aprotinin titration, pancreatitis plasma. As to conditions: 50 min 37° C. The protocol: (§1) 25 μl plasma of a pancreatitis-patient (citrated), 25 μl CPN, 25 μl 36 pkat/ml bovine Factor Xa in PBS, 0.1% Triton X 100®, were incubated with 25 μl assay buffer, containing 600 mM NaHCO3, ph 8.7 with and without 600 mM arginine, 25 μl 25 mM chloramines T®, 25 μl 3 mM N-α-Z-D-Arg-Gly-Arg-pNA 2HCl (S-2765®; Chromogenix, Mölndal, Sweden) and 25 μl Aprotinin (0, 2, 20, 200, 2000, 20000 KIU/ml) for 50 min at 37° C. and the increase in extinction at 405 nm during this incubation time was determined with a microtiterplate-photometer.

Series [5] concerns the target T1, bovine Factor Xa (Bos taurus, UniProt P00743).
T1 construct: 25 μl 36 pkat/ml bovine Factor Xa in PBS
The series is described as follows: Aprotinin on pure factor Xa. As to conditions: 36 pkat/ml bovine Factor Xa; substrate S-2765. How it is done:
[…], 0.1% Triton X 100®, were incubated with 25 μl assay buffer, containing 600 mM NaHCO3, ph 8.7 with and without 600 mM arginine, 25 μl 25 mM chloramines T®, 25 μl 3 mM N-α-Z-D-Arg-Gly-Arg-pNA 2HCl (S-2765®; Chromogenix, Mölndal, Sweden) and 25 μl Aprotinin (0, 2, 20, 200, 2000, 20000 KIU/ml) for 50 min at 37° C. and the increase in extinction at 405 nm during this incubation time was determined with a microtiterplate-photometer.

Series [6] has as its system CPN. Kind of series: Aprotinin titration in CPN. As to conditions: 50 min 37° C. The protocol:
as §1

A short description of series [7]: Standardization of GACA with a pure enzyme-reagent / FEIBA. As to conditions: pure enzyme in 500 mM arginine, 2% Hämaccel, 0.1% Triton X 100. How it is done: The GACA was performed with 100 μl pure bovine thrombin (0-18 mlU/ml; DadeBehring), pure bovine Factor Xa (0-150 pkat/ml) or a Factor-Eight-Inhibitor-Bypassing-Activity-concentrate (0-2.6 units/ml; FEIBA®, Immuno, Wien) in 500 mM arginine, 2% Hämaccel®, 0.1% Triton X 100® (substrate here=HD-CHG-Ala-Arg-pNA. Additional samples were Control Plasma N® (CPN, DadeBehring) or CPN supplemented with FEIBA (0-2.6 units/ml). The incubation was varied from 0 to 4 h. The respective change in extinction was measured. Result: There appears a linear relationship between the thrombin- or factor Xa-concentration used and the resulting change in extinction, and also between incubation time and change in extinction. 6 mlU/ml IIa or 45 pkat/ml Xa result in a change in extinction, that corresponds to that of normal plasma (100% GACA). Thus, the GACA can be calibrated and standardized with pure thrombin- or factor Xa-reagent. CPN with 2.6 units/ml FEIBA has a GACA-value of approx. 200%, i.e. this addition of FEIBA to CPN increases the GACA-value from 100% to […].

Series [8] concerns normal EDTA-Plasma supplemented with bovine thrombin (pathoplasma). Kind of series: GACA, optimization of the concentration of substrate, pathoplasma. The protocol: Before and after the incubation the extinction at 405 nm was determined.
The ratio of the extinctions of pathoplasma and normal plasma approximates the value of 1 at final substrate concentrations >1.5 mM. The higher this value the more specific is the assays for pathologic activation of hemostasis, here imitated by addition of 120 mlU/ml bovine thrombin. This ratio reaches maximal values at final substrate concentrations ≦1 mM. However, the maximal change in extinction decreases at low substrate concentrations, especially at substrate concentrations below 0.3 mM, i.e. substrate exhaustion occurs. Therefore the final substrate concentration in the GACA should be between 0.3 mM and 1.0 mM, preferentially between 0.5 mM and 0.8 mM, particularly at 0.56 mM. At this final substrate concentration the assay is very specific for activation of hemostasis, and consequently the determination of CPC (approach B) can be neglected where appropriate. Thus, the GACA-value corresponds to the uGACA-value at a final substrate concentration of up to 0.8 mM, i.e. GACA=approach A (without correction is by approach B). After addition of thrombin to EDTA-plasma 90% of thrombin is inactivated, in the GACA only 10% of the added enzyme activity can be detected.

The target in series [9] is T2, bovine thrombin (Bos taurus, UniProt P00735).
T2 construct: activity of thrombin in plasma after addition of 120 mlU/ml thrombin (F IIa); purchased DadeBehring
The series is described as follows: Determination of the Km-value for thrombin in plasma. As to conditions: thrombin in plasma after addition of 120 mlU/ml thrombin; 37° C.; read-out: substrate concentration at halfmaximal velocity (Km-value). How it is done:
1. Normal EDTA-plasma with 250 mM arginine, pH 8.7, and 2. normal EDTA-plasma, supplemented with 120 mlU/ml bovine thrombin and 30 min thereafter with 250 mM arginine, pH 8.7, were incubated with 50 μl HD-CHG-Ala-Arg-pNA (0-6.67 mM final) in aqua dest, Delta A/3 h (37° C.) was measured and the value of 1. was subtracted from the value of 2. The resulting difference corresponds to the activity of thrombin in plasma after addition of 120 mlU/ml thrombin (F IIa). Result the maximal enzyme velocity is 800 mA/3 h the substrate concentration at halfmaximal velocity (Km-value) is 0.3 mM.

[10] abbreviates: 25 μl 2 KIU/ml, absence of arginine.
Where [11] appears, read: 25 μl 2 KIU/ml, presence of arginine.
Where [12] appears, read: 25 μl 20 KIU/ml, absence of arginine.
The mark [13] stands for this setting: 25 μl 20 KIU/ml, presence of arginine.
The mark [14] stands for this setting: 25 μl 200 KIU/ml, absence of arginine.
[15] abbreviates: 25 μl 200 KIU/ml, presence of arginine.
[16] abbreviates: 25 μl 2000 KIU/ml, absence of arginine.
Setting [17] is: 25 μl 2000 KIU/ml, presence of arginine.
The mark [18] stands for this setting: 25 μl 20000 KIU/ml, absence of arginine.
[19] abbreviates: 25 μl 20000 KIU/ml, presence of arginine.

T1 sequence (P00743 234-492 limits assumed): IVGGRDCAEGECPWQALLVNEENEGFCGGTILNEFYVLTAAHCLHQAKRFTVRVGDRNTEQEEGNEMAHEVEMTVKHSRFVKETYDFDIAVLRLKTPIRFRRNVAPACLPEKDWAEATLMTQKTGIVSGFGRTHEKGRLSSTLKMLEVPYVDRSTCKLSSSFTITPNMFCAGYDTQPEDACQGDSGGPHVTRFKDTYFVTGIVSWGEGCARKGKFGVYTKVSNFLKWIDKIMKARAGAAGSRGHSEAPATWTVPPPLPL
T1 sequence (P00743 41-180 partner limits assumed): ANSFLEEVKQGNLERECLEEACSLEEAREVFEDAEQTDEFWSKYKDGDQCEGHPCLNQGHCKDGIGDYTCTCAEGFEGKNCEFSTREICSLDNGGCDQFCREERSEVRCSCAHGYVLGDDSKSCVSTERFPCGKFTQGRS

Take `N=C(N)NCCC[C@H](N)C(=O)O` [arginine]: the “Pathromtin SL®-CPC compared to a normal plasma without arginine=100%” value in series [1] is 0%.
`O=c1oc2c(O)c(O)cc3c(=O)oc4c(O)c(O)cc1c4c23` [ellagic acid]: the “test concentration at optimal activity of protease” value in [2] (CPC, 4 min RT) turned out to be 0.05 g/L. Besides, in series [2] (at optimal test concentration of contact phase activator, 405 nm, RT), the “delta A” value worked out at 1443 mA/4 min. Further, the “2-step-CPC value lower than with Pathromtin SL®” value in [3] was roughly 20%.
As to aprotinin, the increase of extinction came out at 733 mA in [4] (setting [10]); 778 mA in series [4] (setting [11]); 715 mA in series [4] (setting [12]); 709 mA in [4] (setting [13]); 531 mA in series [4] (setting [14]); 685 mA in series [4] (setting [15]). The increase of extinction is 294 mA in series [4] (setting [16]), 497 mA in [4] (setting [17]), 103 mA in series [4] (setting [18]) and 259 mA in series [4] (setting [19]). The “inhibition of pure factor Xa” value in [5] is “not inhibited”. For the same compound, the “increase in extinction in the CPN” value in [6] (setting [10]) is 134 mA; in series [6] (setting [11]) it was 133 mA; in [6] (setting [12]), 135 mA; in [6] (setting [13]), 126 mA; in [6] (setting [14]) it was 108 mA; in series [6] (setting [15]) it was 126 mA. Further, the “increase in extinction in the CPN” value in series [6] (setting [16]) is recorded as 118 mA; in series [6] (setting [17]), 125 mA; in series [6] (setting [18]), 124 mA; in series [6] (setting [19]), 123 mA.
As to “thrombin: pure bovine thrombin (DadeBehring)”, the “concentration giving a change in extinction that corresponds to normal plasma (100% GACA)” value in series [7] amounted to 6 mlU/ml. Also, in series [8], the “thrombin inactivated after addition to EDTA-plasma” value worked out at 90%. For the same compound, the “added enzyme activity that can be detected in the GACA” value in [8] (after addition of thrombin to EDTA-plasma) is on record as 10%.
`C[C@H](NC(=O)[C@H](N)C1CCCCC1)C(=O)N[C@@H](CCCNC(=N)N)C(=O)Nc1ccc([N+](=O)[O-])cc1` [HD-CHG-Ala-Arg-pNA, HD-CHG-Ala-Arg-pNA.2AcOH] (H-[dChg]-Ala-Arg-pNA): the Km in [9] was found to be 300 µM.
